According to patent US20250353873A1, “COMPOUNDS AND METHODS FOR MODULATING APOE EXPRESSION” (Ionis Pharmaceuticals, Inc., priority 2024, published 2025):
Strand notation (5' to 3'): a small letter for the sugar, then the base; units joined by * are phosphorothioate-linked, units joined directly phosphodiester-linked; [ ] holds rarer units or linkages, { } end groups; capitals alone tell only the bases. [ms] = mesyl phosphoramidate linkage; e = 2'-O-(2-methoxyethyl) (MOE); k = constrained ethyl (cEt); [5mC] = 5-methylcytosine; d = 2'-deoxy (DNA)

Tested on: human APOE RNA
Experiment: Dose-dependent inhibition of human APOE RNA in HepG2 cells, electroporation, 50,000 cells per well, RT-PCR normalized to GAPDH (Example 4, Tables 8-10)
Type: cell-based
Details: HepG2, electroporation
Description: Modified oligonucleotides selected from the examples above were tested at various doses in HepG2 cells. The modified oligonucleotides were tested in a series of experiments that had the same culture conditions. Each experiment is identified in separate tables below.
HepG2 cells plated at a density of 50,000 cells per well were treated by electroporation with various concentrations of modified oligonucleotide as specified in the tables below. […] APOE RNA levels were measured using the human primer probe set RTS3073 (forward sequence […], designated herein as SEQ ID NO: 7; reverse sequence CCATCAGCGCCCTCAGTT, designated herein as SEQ ID NO: 8; probe sequence […], designated herein as SEQ ID NO:9). APOE RNA levels were normalized to human GAPDH. […] Results are presented as percent APOE RNA, relative to the amount of APOE RNA in untreated control cells (UTC).

## 1747051 (k[5mC]*kT*dT[ms]kG*dG[ms]kT*dG[ms]dA[ms]dA[ms]dT*d[5mC]*dT*dT*dT*dA[ms]dT*kT*dA[ms]dA[ms]kA; antisense) [Compound 1747051]
5 nM, 24-hour treatment
  APOE RNA (% UTC): 111 % UTC
13 nM, 24-hour treatment
  APOE RNA (% UTC): 117 % UTC
33 nM, 24-hour treatment
  APOE RNA (% UTC): 152 % UTC
82 nM, 24-hour treatment
  APOE RNA (% UTC): 128 % UTC
205 nM, 24-hour treatment
  APOE RNA (% UTC): 111 % UTC
512 nM, 24-hour treatment
  APOE RNA (% UTC): 67 % UTC
1,280 nM, 24-hour treatment
  APOE RNA (% UTC): 76 % UTC
3,200 nM, 24-hour treatment
  APOE RNA (% UTC): 42 % UTC
8,000 nM, 24-hour treatment
  APOE RNA (% UTC): 31 % UTC
20,000 nM, 24-hour treatment
  APOE RNA (% UTC): 9 % UTC
24-hour treatment
  IC50: 2900 nM

## 1746813 (k[5mC]*dT[ms]dT[ms]kG*dG[ms]kT*dG[ms]dA[ms]dA[ms]dT*d[5mC]*dT*dT*dT*dA[ms]dT*dT[ms]kA*kA*kA; antisense) [Compound 1746813]
5 nM, 24-hour treatment
  APOE RNA (% UTC): 137 % UTC
13 nM, 24-hour treatment
  APOE RNA (% UTC): 117 % UTC
33 nM, 24-hour treatment
  APOE RNA (% UTC): 119 % UTC
82 nM, 24-hour treatment
  APOE RNA (% UTC): 101 % UTC
205 nM, 24-hour treatment
  APOE RNA (% UTC): 100 % UTC
512 nM, 24-hour treatment
  APOE RNA (% UTC): 83 % UTC
1,280 nM, 24-hour treatment
  APOE RNA (% UTC): 57 % UTC
3,200 nM, 24-hour treatment
  APOE RNA (% UTC): 41 % UTC
8,000 nM, 24-hour treatment
  APOE RNA (% UTC): 19 % UTC
20,000 nM, 24-hour treatment
  APOE RNA (% UTC): 21 % UTC
24-hour treatment
  IC50: 2250 nM

## 1746805 (k[5mC]*kT*dT[ms]kG*dG[ms]dT[ms]dG[ms]dA[ms]dA[ms]dT*d[5mC]*dT*dT*dT*dA[ms]dT*dT[ms]kA*kA*kA; antisense) [Compound 1746805]
5 nM, 24-hour treatment
  APOE RNA (% UTC): 95 % UTC
13 nM, 24-hour treatment
  APOE RNA (% UTC): 109 % UTC
33 nM, 24-hour treatment
  APOE RNA (% UTC): 93 % UTC
82 nM, 24-hour treatment
  APOE RNA (% UTC): 94 % UTC
205 nM, 24-hour treatment
  APOE RNA (% UTC): 65 % UTC
512 nM, 24-hour treatment
  APOE RNA (% UTC): 75 % UTC
1,280 nM, 24-hour treatment
  APOE RNA (% UTC): 41 % UTC
3,200 nM, 24-hour treatment
  APOE RNA (% UTC): 39 % UTC
8,000 nM, 24-hour treatment
  APOE RNA (% UTC): 29 % UTC
20,000 nM, 24-hour treatment
  APOE RNA (% UTC): 11 % UTC
24-hour treatment
  IC50: 1360 nM

## 1746791 (k[5mC]*dT[ms]dT[ms]kG*kG*dT[ms]dG[ms]dA[ms]dA[ms]dT*d[5mC]*dT*dT*dT*dA[ms]dT*kT*kA*dA[ms]kA; antisense) [Compound 1746791]
5 nM, 24-hour treatment
  APOE RNA (% UTC): 88 % UTC
13 nM, 24-hour treatment
  APOE RNA (% UTC): 104 % UTC
33 nM, 24-hour treatment
  APOE RNA (% UTC): 93 % UTC
82 nM, 24-hour treatment
  APOE RNA (% UTC): 88 % UTC
205 nM, 24-hour treatment
  APOE RNA (% UTC): 80 % UTC
512 nM, 24-hour treatment
  APOE RNA (% UTC): 62 % UTC
1,280 nM, 24-hour treatment
  APOE RNA (% UTC): 35 % UTC
3,200 nM, 24-hour treatment
  APOE RNA (% UTC): 21 % UTC
8,000 nM, 24-hour treatment
  APOE RNA (% UTC): 16 % UTC
20,000 nM, 24-hour treatment
  APOE RNA (% UTC): 21 % UTC
24-hour treatment
  IC50: 850 nM

## 1747052 (k[5mC]*dT[ms]kT*kG*dG[ms]kT*dG[ms]dA[ms]dA[ms]dT*d[5mC]*dT*dT*dT*dA[ms]dT*kT*dA[ms]dA[ms]kA; antisense) [Compound 1747052]
5 nM, 24-hour treatment
  APOE RNA (% UTC): 150 % UTC
13 nM, 24-hour treatment
  APOE RNA (% UTC): 113 % UTC
33 nM, 24-hour treatment
  APOE RNA (% UTC): 148 % UTC
82 nM, 24-hour treatment
  APOE RNA (% UTC): 127 % UTC
205 nM, 24-hour treatment
  APOE RNA (% UTC): 108 % UTC
512 nM, 24-hour treatment
  APOE RNA (% UTC): 79 % UTC
1,280 nM, 24-hour treatment
  APOE RNA (% UTC): 53 % UTC
3,200 nM, 24-hour treatment
  APOE RNA (% UTC): 46 % UTC
8,000 nM, 24-hour treatment
  APOE RNA (% UTC): 31 % UTC
20,000 nM, 24-hour treatment
  APOE RNA (% UTC): 19 % UTC
24-hour treatment
  IC50: 2710 nM

## 1766537 (eT*eTeGeGeT*dG[ms]dA[ms]dA[ms]dT*d[5mC]*dT*dT*dT[ms]dA*dT*kTkAeA*eA*e[5mC]; antisense) [Compound 1766537]
5 nM, 16-hour treatment
  APOE RNA (% UTC): 95 % UTC
13 nM, 16-hour treatment
  APOE RNA (% UTC): 111 % UTC
33 nM, 16-hour treatment
  APOE RNA (% UTC): 108 % UTC
82 nM, 16-hour treatment
  APOE RNA (% UTC): 89 % UTC
205 nM, 16-hour treatment
  APOE RNA (% UTC): 90 % UTC
512 nM, 16-hour treatment
  APOE RNA (% UTC): 85 % UTC
1,280 nM, 16-hour treatment
  APOE RNA (% UTC): 62 % UTC
3,200 nM, 16-hour treatment
  APOE RNA (% UTC): 36 % UTC
8,000 nM, 16-hour treatment
  APOE RNA (% UTC): 21 % UTC
20,000 nM, 16-hour treatment
  APOE RNA (% UTC): 5 % UTC
16-hour treatment
  IC50: 2010 nM

## 1757569 (eA*e[5mC]eTkTkG*dG*dT*dG*dA*dA*dT*d[5mC]*dT*dT*dT*kAeTeT*eA*eA; antisense) [Compound 1757569]
5 nM, 16-hour treatment
  APOE RNA (% UTC): 101 % UTC
13 nM, 16-hour treatment
  APOE RNA (% UTC): 91 % UTC
33 nM, 16-hour treatment
  APOE RNA (% UTC): 82 % UTC
82 nM, 16-hour treatment
  APOE RNA (% UTC): 81 % UTC
205 nM, 16-hour treatment
  APOE RNA (% UTC): 60 % UTC
512 nM, 16-hour treatment
  APOE RNA (% UTC): 38 % UTC
1,280 nM, 16-hour treatment
  APOE RNA (% UTC): 24 % UTC
3,200 nM, 16-hour treatment
  APOE RNA (% UTC): 24 % UTC
8,000 nM, 16-hour treatment
  APOE RNA (% UTC): 18 % UTC
20,000 nM, 16-hour treatment
  APOE RNA (% UTC): 18 % UTC
16-hour treatment
  IC50: 390 nM

## 1757557: mixed MOE/cEt gapmer TTGGTGAATCTTTATTAA, sugar eeeeeddddddddeekke, linkages soossssssssssooss (eT*eTeGeG*eT*dG*dA*dA*dT*d[5mC]*dT*dT*dT*eAeTkT*kA*eA) [compound 1757557]
5 nM, 16-hour treatment
  APOE RNA (% UTC): 79 % UTC
13 nM, 16-hour treatment
  APOE RNA (% UTC): 88 % UTC
33 nM, 16-hour treatment
  APOE RNA (% UTC): 89 % UTC
82 nM, 16-hour treatment
  APOE RNA (% UTC): 88 % UTC
205 nM, 16-hour treatment
  APOE RNA (% UTC): 86 % UTC
512 nM, 16-hour treatment
  APOE RNA (% UTC): 89 % UTC
1,280 nM, 16-hour treatment
  APOE RNA (% UTC): 94 % UTC
3,200 nM, 16-hour treatment
  APOE RNA (% UTC): 59 % UTC
8,000 nM, 16-hour treatment
  APOE RNA (% UTC): 36 % UTC
20,000 nM, 16-hour treatment
  APOE RNA (% UTC): 7 % UTC
16-hour treatment
  IC50: 4680 nM

## 1757566 (eA*e[5mC]eTkTkG*dG*dT*dG*dA*dA*dT*d[5mC]*dT*dT*dT*eAeTeT*eA*eA; antisense) [Compound 1757566]
5 nM, 16-hour treatment
  APOE RNA (% UTC): 82 % UTC
13 nM, 16-hour treatment
  APOE RNA (% UTC): 87 % UTC
33 nM, 16-hour treatment
  APOE RNA (% UTC): 85 % UTC
82 nM, 16-hour treatment
  APOE RNA (% UTC): 73 % UTC
205 nM, 16-hour treatment
  APOE RNA (% UTC): 77 % UTC
512 nM, 16-hour treatment
  APOE RNA (% UTC): 49 % UTC
1,280 nM, 16-hour treatment
  APOE RNA (% UTC): 31 % UTC
3,200 nM, 16-hour treatment
  APOE RNA (% UTC): 22 % UTC
8,000 nM, 16-hour treatment
  APOE RNA (% UTC): 17 % UTC
20,000 nM, 16-hour treatment
  APOE RNA (% UTC): 21 % UTC
16-hour treatment
  IC50: 550 nM

## 1747053 (k[5mC]*dT[ms]dT[ms]kG*kG*kT*dG[ms]dA[ms]dA[ms]dT*d[5mC]*dT*dT*dT*dA[ms]dT*kT*dA[ms]dA[ms]kA; antisense) [Compound 1747053]
5 nM, 24-hour treatment
  APOE RNA (% UTC): 115 % UTC
13 nM, 24-hour treatment
  APOE RNA (% UTC): 131 % UTC
33 nM, 24-hour treatment
  APOE RNA (% UTC): 124 % UTC
82 nM, 24-hour treatment
  APOE RNA (% UTC): 107 % UTC
205 nM, 24-hour treatment
  APOE RNA (% UTC): 70 % UTC
512 nM, 24-hour treatment
  APOE RNA (% UTC): 49 % UTC
1,280 nM, 24-hour treatment
  APOE RNA (% UTC): 57 % UTC
3,200 nM, 24-hour treatment
  APOE RNA (% UTC): 39 % UTC
8,000 nM, 24-hour treatment
  APOE RNA (% UTC): 38 % UTC
20,000 nM, 24-hour treatment
  APOE RNA (% UTC): 32 % UTC
24-hour treatment
  IC50: 2170 nM

## 1746785 (k[5mC]*kT*dT[ms]kG*dG[ms]dT[ms]dG[ms]dA[ms]dA[ms]dT*d[5mC]*dT*dT*dT*dA[ms]dT*kT*kA*dA[ms]kA; antisense) [Compound 1746785]
5 nM, 24-hour treatment
  APOE RNA (% UTC): 90 % UTC
13 nM, 24-hour treatment
  APOE RNA (% UTC): 93 % UTC
33 nM, 24-hour treatment
  APOE RNA (% UTC): 97 % UTC
82 nM, 24-hour treatment
  APOE RNA (% UTC): 84 % UTC
205 nM, 24-hour treatment
  APOE RNA (% UTC): 83 % UTC
512 nM, 24-hour treatment
  APOE RNA (% UTC): 53 % UTC
1,280 nM, 24-hour treatment
  APOE RNA (% UTC): 48 % UTC
3,200 nM, 24-hour treatment
  APOE RNA (% UTC): 29 % UTC
8,000 nM, 24-hour treatment
  APOE RNA (% UTC): 8 % UTC
20,000 nM, 24-hour treatment
  APOE RNA (% UTC): 35 % UTC
24-hour treatment
  IC50: 1040 nM
